Series [1] concerns the target T1, Thromboxane-A synthase (Homo sapiens, UniProt P24557).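 Note: enzyme inhibition assay with PGH2 supplied as substrate; in other assays of this panel Not Active means under 50% inhibition at 10 µM.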
T1 sequence (P24557 whole entry): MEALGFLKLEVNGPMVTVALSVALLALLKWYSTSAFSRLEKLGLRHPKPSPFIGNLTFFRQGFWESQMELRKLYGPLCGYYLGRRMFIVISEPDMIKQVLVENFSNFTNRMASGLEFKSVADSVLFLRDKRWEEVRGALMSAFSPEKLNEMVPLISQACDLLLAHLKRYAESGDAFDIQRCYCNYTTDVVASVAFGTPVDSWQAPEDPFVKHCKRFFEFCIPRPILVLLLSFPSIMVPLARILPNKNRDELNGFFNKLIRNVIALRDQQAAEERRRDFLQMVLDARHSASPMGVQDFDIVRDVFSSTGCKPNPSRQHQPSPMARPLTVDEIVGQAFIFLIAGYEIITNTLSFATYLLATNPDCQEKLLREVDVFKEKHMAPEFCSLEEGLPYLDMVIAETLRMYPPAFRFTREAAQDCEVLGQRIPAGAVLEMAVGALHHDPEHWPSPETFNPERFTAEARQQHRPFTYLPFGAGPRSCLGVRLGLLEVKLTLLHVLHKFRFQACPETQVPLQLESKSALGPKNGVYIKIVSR
The series is described as follows: biochemical. It counts as tissue-based, Platelet.

In series [2] the target is T2, Neuropeptide Y receptor type 2 (Homo sapiens, UniProt P49146). Note: in other assays of this panel Not Active means under 50% inhibition at 10 µM.
T2 sequence (P49146 whole entry): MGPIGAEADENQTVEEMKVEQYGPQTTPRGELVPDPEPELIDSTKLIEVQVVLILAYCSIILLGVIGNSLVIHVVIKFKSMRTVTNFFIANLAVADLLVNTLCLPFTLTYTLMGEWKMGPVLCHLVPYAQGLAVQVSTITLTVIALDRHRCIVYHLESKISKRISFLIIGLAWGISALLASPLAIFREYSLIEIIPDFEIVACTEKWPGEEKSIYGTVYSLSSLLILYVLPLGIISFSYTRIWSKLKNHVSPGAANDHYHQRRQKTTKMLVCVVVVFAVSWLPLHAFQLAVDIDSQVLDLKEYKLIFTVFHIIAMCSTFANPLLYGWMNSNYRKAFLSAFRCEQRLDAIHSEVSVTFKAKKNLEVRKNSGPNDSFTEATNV
The class given is cell membranes, Membrane. Particulars: kan-ts.

Series [3] in a line: DRUGMATRIX: Nicotinic Acetylcholine radioligand binding (ligand: [125I] Epibatidine). It counts as cell membranes, Membrane. Particulars: imr-32; Not Active = under 50% inhibition at 10 µM.
The target of series [4] is T3, Cathepsin G (Homo sapiens, UniProt P08311).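 Note: inhibition of Cathepsin G enzyme activity, tested on an AMC-conjugated peptide substrate; in other assays of this panel Not Active means under 50% inhibition at 10 µM.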
T3 sequence (P08311 whole entry): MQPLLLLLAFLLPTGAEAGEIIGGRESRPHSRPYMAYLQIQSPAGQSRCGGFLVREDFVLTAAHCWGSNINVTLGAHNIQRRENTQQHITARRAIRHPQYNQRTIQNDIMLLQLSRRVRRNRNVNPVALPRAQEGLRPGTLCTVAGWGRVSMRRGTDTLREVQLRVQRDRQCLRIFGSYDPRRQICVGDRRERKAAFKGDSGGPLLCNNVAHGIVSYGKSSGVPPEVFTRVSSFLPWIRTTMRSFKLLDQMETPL
It counts as tissue-based. Particulars: neutrophil.

Series [5] deals with Protein kinase C alpha type (Homo sapiens, UniProt P17252). The class given is cell-based. Particulars: sf9.
In series [6] the target is Epidermal growth factor receptor (Homo sapiens, UniProt P00533). The series is described as follows: DRUGMATRIX: Protein Tyrosine Kinase, EGF Receptor enzyme inhibition (substrate: Poly(Glu:Tyr)). It counts as cell-based, Insect cells. Particulars: Not Active = under 50% inhibition at 10 µM.
Epidermal growth factor receptor, sequence (P00533 whole entry): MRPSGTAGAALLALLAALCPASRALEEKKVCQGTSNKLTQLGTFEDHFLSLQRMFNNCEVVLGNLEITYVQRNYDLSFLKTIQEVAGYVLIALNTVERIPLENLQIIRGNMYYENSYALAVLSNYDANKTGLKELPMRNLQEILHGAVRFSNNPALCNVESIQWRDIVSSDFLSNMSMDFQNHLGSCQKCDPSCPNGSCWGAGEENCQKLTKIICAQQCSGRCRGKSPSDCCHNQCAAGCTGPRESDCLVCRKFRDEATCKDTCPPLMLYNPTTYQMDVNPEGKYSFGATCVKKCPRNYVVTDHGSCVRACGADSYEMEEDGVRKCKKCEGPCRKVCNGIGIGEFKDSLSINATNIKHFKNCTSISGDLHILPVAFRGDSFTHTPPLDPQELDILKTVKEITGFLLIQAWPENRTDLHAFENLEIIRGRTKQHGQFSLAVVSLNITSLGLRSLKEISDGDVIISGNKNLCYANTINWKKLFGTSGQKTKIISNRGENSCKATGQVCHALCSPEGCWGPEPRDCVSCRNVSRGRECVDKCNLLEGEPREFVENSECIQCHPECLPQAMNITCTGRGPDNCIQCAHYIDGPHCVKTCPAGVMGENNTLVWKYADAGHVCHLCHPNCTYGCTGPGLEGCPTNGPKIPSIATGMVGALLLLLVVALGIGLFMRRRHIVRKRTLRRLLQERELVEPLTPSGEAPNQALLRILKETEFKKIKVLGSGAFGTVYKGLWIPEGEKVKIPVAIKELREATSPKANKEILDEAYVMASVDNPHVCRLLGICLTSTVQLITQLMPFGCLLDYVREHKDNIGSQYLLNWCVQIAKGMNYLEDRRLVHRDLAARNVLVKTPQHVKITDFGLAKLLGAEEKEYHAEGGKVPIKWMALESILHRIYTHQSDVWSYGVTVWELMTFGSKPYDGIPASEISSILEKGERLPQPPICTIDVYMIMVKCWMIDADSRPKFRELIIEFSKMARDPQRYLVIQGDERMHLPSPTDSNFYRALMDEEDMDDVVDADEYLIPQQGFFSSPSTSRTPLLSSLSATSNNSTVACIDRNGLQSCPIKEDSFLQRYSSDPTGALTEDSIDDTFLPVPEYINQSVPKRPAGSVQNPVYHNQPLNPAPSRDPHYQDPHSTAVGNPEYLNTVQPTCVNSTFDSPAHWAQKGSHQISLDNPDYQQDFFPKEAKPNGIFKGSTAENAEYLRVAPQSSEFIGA
Series [7] has as its target Cytochrome P450 2D6 (Homo sapiens, UniProt P10635). The note with it: bti-tn-5b1-4. Note: in other assays of this panel Not Active means under 50% inhibition at 10 µM.
Series [8] has as its target Voltage-gated inwardly rectifying potassium channel KCNH2 (Homo sapiens, UniProt Q12809). Particulars: hek293. Note: in other assays of this panel Not Active means under 50% inhibition at 10 µM.

Voltage-gated inwardly rectifying potassium channel KCNH2, sequence (Q12809 whole entry): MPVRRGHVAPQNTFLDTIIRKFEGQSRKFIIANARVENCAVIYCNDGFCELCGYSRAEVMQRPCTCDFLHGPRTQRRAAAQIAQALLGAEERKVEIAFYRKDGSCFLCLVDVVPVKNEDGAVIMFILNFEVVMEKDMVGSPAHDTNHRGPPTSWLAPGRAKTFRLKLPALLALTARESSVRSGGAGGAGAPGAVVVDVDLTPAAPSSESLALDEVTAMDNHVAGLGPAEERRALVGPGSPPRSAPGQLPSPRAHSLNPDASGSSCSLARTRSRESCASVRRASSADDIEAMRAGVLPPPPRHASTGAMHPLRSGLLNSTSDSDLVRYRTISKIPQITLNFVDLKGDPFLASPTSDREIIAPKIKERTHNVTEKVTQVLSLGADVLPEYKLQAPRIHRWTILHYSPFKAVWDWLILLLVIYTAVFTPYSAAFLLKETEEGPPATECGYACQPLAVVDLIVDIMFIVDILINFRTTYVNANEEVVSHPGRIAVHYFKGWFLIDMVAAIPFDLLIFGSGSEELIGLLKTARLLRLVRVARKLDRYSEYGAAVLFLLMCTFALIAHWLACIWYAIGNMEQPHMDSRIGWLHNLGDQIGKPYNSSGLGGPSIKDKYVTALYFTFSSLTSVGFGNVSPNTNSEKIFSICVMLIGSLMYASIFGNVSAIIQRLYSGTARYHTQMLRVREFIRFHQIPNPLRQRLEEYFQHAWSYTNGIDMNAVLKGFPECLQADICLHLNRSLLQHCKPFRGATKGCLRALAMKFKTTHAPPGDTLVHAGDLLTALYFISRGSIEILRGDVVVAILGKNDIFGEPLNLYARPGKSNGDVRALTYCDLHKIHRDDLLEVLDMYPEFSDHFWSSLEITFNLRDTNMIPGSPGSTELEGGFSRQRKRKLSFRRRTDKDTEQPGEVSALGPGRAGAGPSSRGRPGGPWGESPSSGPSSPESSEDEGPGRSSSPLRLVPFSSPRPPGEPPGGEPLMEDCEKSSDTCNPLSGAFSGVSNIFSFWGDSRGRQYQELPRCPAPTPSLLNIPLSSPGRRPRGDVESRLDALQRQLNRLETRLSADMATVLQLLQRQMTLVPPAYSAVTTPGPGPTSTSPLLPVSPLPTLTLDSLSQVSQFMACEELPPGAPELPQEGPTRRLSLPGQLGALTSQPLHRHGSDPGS
Cytochrome P450 2D6, sequence (P10635 whole entry): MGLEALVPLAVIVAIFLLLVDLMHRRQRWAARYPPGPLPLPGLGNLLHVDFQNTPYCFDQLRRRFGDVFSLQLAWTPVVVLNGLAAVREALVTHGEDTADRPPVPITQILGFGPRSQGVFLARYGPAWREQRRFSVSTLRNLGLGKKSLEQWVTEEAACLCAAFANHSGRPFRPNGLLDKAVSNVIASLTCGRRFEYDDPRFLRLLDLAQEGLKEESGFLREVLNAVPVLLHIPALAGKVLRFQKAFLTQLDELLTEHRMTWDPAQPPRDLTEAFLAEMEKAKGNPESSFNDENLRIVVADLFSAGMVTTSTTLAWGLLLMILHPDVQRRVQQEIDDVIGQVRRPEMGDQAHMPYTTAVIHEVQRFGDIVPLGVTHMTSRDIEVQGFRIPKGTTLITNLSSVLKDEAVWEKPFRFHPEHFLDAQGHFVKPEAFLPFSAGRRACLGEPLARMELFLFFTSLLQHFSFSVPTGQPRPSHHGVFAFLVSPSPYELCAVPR

By IC50 is commonly meant the concentration at which inhibition is half-maximal. For `O=C(O)CCCc1cccs1`, the IC50 entry in series [1] (platelet), in series [2], in series [3], in series [4], in series [5] and in series [6] (insect cells) was “Not Active” each time. Moreover, the IC50 result in series [7] and in series [8] was “Not Active” in each case. The Ki entry in series [3], in series [7] and in series [8] was “Not Active” in each case.

`COc1ccccc1N`: the IC50 entry in series [1] (platelet), in series [2], in series [3], in series [4], in series [5] and in series [6] (insect cells) was “Not Active” in each case. For the same molecule, the IC50 result in series [7] and in series [8] was “Not Active” throughout. Further, the Ki entry in series [3], in series [7] and in series [8] was “Not Active” in each case.

With `O=C(c1ccccc1F)N1CCC(Cc2ccccc2)CC1`, the IC50 result in series [1] (platelet), in series [2], in series [3], in series [4], in series [5] and in series [6] (insect cells) was “Not Active” in each case. In addition, the IC50 result in series [7] and in series [8] was “Not Active” in each case. Moreover, the Ki result in series [3], in series [7] and in series [8] was “Not Active” each time.

As for `Cc1c(O)cccc1C(=O)N[C@@H](CSc1ccccc1)[C@H](O)CN1C[C@H]2CCCC[C@H]2C[C@H]1C(=O)NC(C)(C)C`, the IC50 in series [1] (read-out: IC50) is 21.1 µM; in series [2], “Not Active”; in series [3], “Not Active”; in series [4], “Not Active”; in series [5], “Not Active”; in series [6] (read-out: IC50), 55.6 µM. In addition, the IC50 entry in series [7] and in series [8] was “Not Active” each time. Also, the Ki result in series [3], in series [7] and in series [8] was “Not Active” in each case.

Take `CC(O)COC[C@H]1O[C@@H]2O[C@H]3[C@H](O)[C@@H](O)[C@@H](O[C@H]4[C@H](O)[C@@H](O)[C@@H](O[C@H]5[C@H](O)[C@@H](O)[C@@H](O[C@H]6[C@H](O)[C@@H](O)[C@@H](O[C@H]7[C@H](O)[C@@H](O)[C@@H](O[C@H]8[C@H](O)[C@@H](O)[C@@H](O[C@H]1[C@H](O)[C@H]2O)O[C@@H]8COCC(C)O)O[C@@H]7COCC(C)O)O[C@@H]6COCC(C)O)O[C@@H]5COCC(C)O)O[C@@H]4COCC(C)O)O[C@@H]3COCC(C)O` (stereo partly drawn) [2-HYDROXYPROPYL-BETA-CYCLODEXTRIN]: the IC50 entry in series [1] (platelet), in series [2], in series [3], in series [4], in series [5] and in series [6] (insect cells) was “Not Active” throughout. Further, the IC50 result in series [7] and in series [8] was “Not Active” throughout. Besides, the Ki entry in series [3], in series [7] and in series [8] was “Not Active” each time.

`NC(=O)c1cccc(N)c1` [3-AMINOBENZAMIDE]: the IC50 result in series [1] (platelet), in series [2], in series [3], in series [4], in series [5] and in series [6] (insect cells) was “Not Active” in each case. For the same molecule, the half-inhibitory concentration (IC50) entry in series [7] and in series [8] was “Not Active” each time. In addition, the Ki result in series [3], in series [7] and in series [8] was “Not Active” in each case.

Consider `C[C@H]1O[C@H](O[C@H]2[C@H](O)[C@@H](O)[C@@H](O[C@H]3[C@H](O)[C@@H](O)C(O)O[C@@H]3CO)O[C@@H]2CO)[C@H](O)[C@@H](O)[C@@H]1N[C@H]1C=C(CO)[C@@H](O)[C@H](O)[C@H]1O` (some centres undefined) [ACARBOSE], for which the IC50 entry in series [1] (platelet), in series [2], in series [3], in series [4], in series [5] and in series [6] (insect cells) was “Not Active” throughout. Further, the IC50 result in series [7] and in series [8] was “Not Active” in each case. In addition, the Ki result in series [3], in series [7] and in series [8] was “Not Active” in each case.

As to `NCCCNCCSP(=O)(O)O` [AMIFOSTINE], the IC50 entry in series [1] (platelet), in series [2], in series [3], in series [4], in series [5] and in series [6] (insect cells) was “Not Active” in each case. Further, the IC50 entry in series [7] and in series [8] was “Not Active” throughout. Moreover, the Ki entry in series [3], in series [7] and in series [8] was “Not Active” each time.

On to `CC(=O)Oc1ccccc1C(=O)O` [ASPIRIN], for which the IC50 result in series [1] (platelet), in series [2], in series [3], in series [4], in series [5] and in series [6] (insect cells) was “Not Active” in each case. Moreover, the IC50 result in series [7] and in series [8] was “Not Active” throughout. In addition, the Ki result in series [3], in series [7] and in series [8] was “Not Active” in each case.

As to `CC(=O)OC[C@H]1O[C@@H](n2ncc(=O)[nH]c2=O)[C@H](OC(C)=O)[C@@H]1OC(C)=O` [AZARIBINE], the IC50 entry in series [1] (platelet), in series [2], in series [3], in series [4], in series [5] and in series [6] (insect cells) was “Not Active” each time. The IC50 entry in series [7] and in series [8] was “Not Active” throughout. The Ki result in series [3], in series [7] and in series [8] was “Not Active” in each case.

On to `C[C@H]1[C@H](NC(=O)/C(=N\OC(C)(C)C(=O)O)c2csc(N)n2)C(=O)N1S(=O)(=O)O` [AZTREONAM], for which the IC50 result in series [1] (platelet), in series [2], in series [3], in series [4], in series [5] and in series [6] (insect cells) was “Not Active” each time. The IC50 result in series [7] and in series [8] was “Not Active” in each case. The Ki entry in series [3], in series [7] and in series [8] was “Not Active” each time.

As for `O=C(O)CCNC(=O)c1ccc(/N=N/c2ccc(O)c(C(=O)O)c2)cc1` [BALSALAZIDE], the IC50 entry in series [1] (platelet), in series [2], in series [3], in series [4], in series [5] and in series [6] (insect cells) was “Not Active” in each case. For the same molecule, the IC50 entry in series [7] and in series [8] was “Not Active” each time. Besides, the Ki result in series [3], in series [7] and in series [8] was “Not Active” each time.

Turning to `COc1cc(OC)c(C(=O)CCCN2CCCC2)c(OC)c1` [BUFLOMEDIL], the IC50 entry in series [1] (platelet), in series [2], in series [3], in series [4], in series [5] and in series [6] (insect cells) was “Not Active” throughout. Also, the IC50 result in series [7] and in series [8] was “Not Active” in each case. Further, the Ki result in series [3], in series [7] and in series [8] was “Not Active” throughout.

Take `ClC(Cl)(Cl)Cl` [CARBON TETRACHLORIDE]: the IC50 result in series [1] (platelet), in series [2], in series [3], in series [4], in series [5] and in series [6] (insect cells) was “Not Active” in each case. The IC50 entry in series [7] and in series [8] was “Not Active” in each case. The Ki result in series [3], in series [7] and in series [8] was “Not Active” in each case.

The values are drawn from ChEMBL document CHEMBL1909046, “DrugMatrix in vitro pharmacology data”.
